Assay results: patent publication US20220133761A1, “NEUTROPHIL APOPTOSIS INDUCED BY NANOPARTICLES FOR TREATING INFLAMMATORY DISEASES” (WASHINGTON STATE UNIVERSITY, priority 2020, published 2022)

How the values were obtained:
[1] = system: differentiated HL-60 cells; experiment: TUNEL apoptosis assay; assay type: cell-based, human; conditions: CLSM images
Method: To further confirm the apoptosis of differentiated HL-60 cells induced by DOX, TUNEL assay was also performed using Cell Meter™ TUNEL (green fluorescence) Apoptosis Assay Kit (AAT Bioquest, Inc.) according to the manufacturer's protocol and the images were taken by a Nikon A1R^+ confocal laser scanning microscope.

[2] = system: differentiated HL-60 cells (neutrophil-like cells); experiment: In vitro cytotoxicity, CCK-8 assay; assay type: cell-based, human; conditions: 24 h, different concentrations of DOX
Method: Cytotoxic effects of BSA NPs on HL-60 cells were measured by CCK-8 assay. HL-60 cells were plated in 96-well plates (Costar, Corning, N.Y.) at 5,000-10,000 cells/well. After incubation for 24 h, the culture medium was removed and a complete medium with various concentrations of free DOX, BSA and DOX-conjugated BSA NPs was used to incubate cells for 24 h, respectively. 10 μL of the solution cell proliferation reagent (Promega, Madison, Wis.) per well was added. Then, the cell viability was measured by a Synergy Neo fluorescence plate reader (BioTek, Winooski, Vt.) at 490 nm.

LPS-challenged mice = experiment: Survival study in sepsis mouse model (i.p. LPS 50 mg/kg); assay type: in vivo; conditions: 72 h, 0.2 mg/kg DOX i.v. 4 h after i.p. LPS 50 mg/kg
Method: Adult CD-1 mice were i.p. injected with LPS (50 mg/kg) in the mouse sepsis model. 4 hours later, the LPS-challenged mice were grouped randomly (10 mice per group) and treated (i.v.) with PBS, free DOX (0.2 mg/kg), and prodrug DOX-hyd-BSA NPs (equal to 0.2 mg/kg of free DOX). The animals were monitored every 6 h in the first 12 h followed by monitoring mice every 12 h in 72 h.

[3] = system: differentiated HL-60 cells; experiment: Apoptosis analysis, Annexin V-FITC / 7AAD staining (flow cytometry, CLSM); assay type: cell-based, human; conditions: for apoptotic cells by flow cytometry: 24 h, DOX 3 μg/mL; for Annexin V-FITC / 7AAD staining by confocal microscopy: 24 h treatment
Method: To investigate the apoptosis of neutrophils induced by DOX, Annexin V-FITC and 7AAD were used to double stain differentiated HL-60 cells. […] The cells were re-suspended in a binding buffer for staining of Annexin V-FITC and 7AAD (emission at 650 nm) according to the manufacturer's protocol (Invitrogen). Stained cells were analyzed using a flow cytometer and imaged by a Nikon A1R^+ confocal laser scanning microscope.

[4] = system: heart, liver, spleen, lung and kidney; experiment: Toxicity by histological analysis (H&E staining of major organs); conditions: for tissue or cellular damage in H&E sections of heart, liver, spleen, lung, kidney: 0.2 mg/kg DOX
Method: After different treatments (healthy, PBS, 4 mg/kg of free DOX, 0.2 mg/kg of free DOX, DOX-hyd-BSA NPs and DOX-ab-BSA NPs, equal to 0.2 mg/kg of DOX for NPs), mice were sacrificed by carbon dioxide asphyxiation. […] The samples were imaged by a microscope (ZEISS, Observer. Z1, USA).

[5] = Serum stability of nanoparticles in PBS with 20% FBS; assay type: physicochemical; conditions: pH 7.4, incubation for 4 days
Method: Particle size and polydispersity indexes (PDI) were measured using Malvern Zetasizer Nano90 (Westborough, Mass.). The samples were incubated in PBS at pH 7.4 for 2 h, and the measurements were conducted in a 1.0 mL quartz cuvette using a diode laser of 633 nm at 25° C. and a scattering angle was fixed at 90°. To evaluate their serum stability, nanoparticles were dispersed in 20% FBS PBS solution (pH 7.4) at a final concentration of 1 mg/mL. Nanoparticle sizes were measured at the predefined time points. Transmission electron microscopy (TEM) of nanoparticles was also performed using a FEI Technai G2 20 Twin TEM (Hillsboro, Oreg.).

[6] = In vitro drug release profile (dialysis, 37 C); assay type: physicochemical; conditions: pH 5.0-7.4, in 48 h
Method: Release profiles of DOX from NPs were studied using dialysis method at 37° C.(33) Briefly, 3 mg of NPs was dispersed in 3 mL (Ve) PBS at different pH, and then was placed in a dialysis bag (MWCO 3500 Da). The dialysis bag was immersed in 47 mL PBS (pH 7.4, 6.5 or 5.0) in a beaker. The beaker was then placed in a 37° C. water bath and stirred at 110 rpm. The samples were drawn at desired time intervals and the drug concentration was measured using UV-Vis absorption. The experiments were carried out in triplicate at each pH value. The accumulative drug release percent (Er) was calculated based on equation (1).
where, mdrug represents the amount of DOX in NPs, V0 was the whole volume of release media (V0=50 mL), Ci represents the concentration of DOX in the ith sample.

[7] = pH-triggered DOX release, UV-Vis of supernatants after 2 h incubation; assay type: physicochemical; conditions: pH 5.0 to 7.4, 2 h incubation in PBS
Method: To confirm the pH-triggered drug release property, BSA NPs, DOX-ab-BSA NPs and DOX-hyd-BSA NPs were incubated in PBS at pH 7.4, 6.5 and 5.0 for 2 h, respectively. After centrifugation, the supernatants were collected to determine DOX concentrations using a UV-Vis spectrometer.

| Molecule | cells with co-staining of DOX and TUNEL [1] [%] | cytotoxicity (cell viability) [2] | mouse survival (LPS-challenged mice) | apoptotic cells by flow cytometry [3] [%] | Annexin V-FITC / 7AAD staining by confocal microscopy [3] | tissue or cellular damage in H&E sections of heart, liver, spleen, lung, kidney [4] | myocardial damage (vacuolization, myofibril loss) ([4]; high dose 4.0 mg/kg) | serum stability (aggregation, diameter change) [5] | co-staining of DOX and TUNEL [1] | cumulative DOX release [6] | DOX absorption in supernatant [7] |
| --- | --- | --- | --- | --- | --- | --- | --- | --- | --- | --- | --- |
| COc1cccc2c1C(=O)c1c(O)c3c(c(O)c1C2=O)C[C@@](O)(C(=O)CO)C[C@@H]3O[C@H]1C[C@H](N)[C@H](O)[C@H](C)O1.Cl [free DOX, doxorubicin hydrochloride] | ~100 | cytotoxicity was similar for both free DOX and DOX-hyd-BSA NPs | 10-20% | 73 | contained staining of Annexin-V-FITC, and less staining of 7AAD | did not show any noticeable signs of tissue or cellular damage | induced myocardial damage | – | – | – | – |
| DOX-ab-BSA NPs | – | more efficient compared to that of DOX-ab-BSA NPs | – | 20 | did not induce cell apoptosis | did not show any noticeable signs of tissue or cellular damage | – | no aggregation (diameter change) was observed | a few cells possessed TUNEL signal | 10-20% | did not show the absorption of DOX in their supernatants |
